Results taken from ChEMBL document CHEMBL5537121, “Synthesis and biological evaluation of structurally diverse 6-aryl-3-aroyl-indole analogues as inhibitors of tubulin polymerization” (Eur J Med Chem, 2024).
The source made the active and inactive calls. The calls are words filed in the database; no cut-off is given here.

Legend:
MDA-MB-231 [1] = experiment: Cytotoxicity against human MDA-MB-231 cells assessed as cell growth inhibition incubated for 96 hrs by SRB assay; type: functional
[2] = Inhibition of bovine brain tubulin polymerization preincubated for 15 mins followed by GTP addition and measured after 20 mins by spectrophotometric analysis; design: species or system Bos taurus
MCF7 = experiment: Cytotoxicity against human MCF7 cells assessed as cell growth inhibition incubated for 96 hrs by SRB assay; type: functional
Tubulin (Homo sapiens) [3] = biological target: T1, Tubulin (Homo sapiens) (UniProt P68371+Q9H4B7+P0DPH7+P68366+Q13509+Q71U36+P04350+Q3ZCM7+P07437+P68363+Q9BQE3+Q6PEY2+Q13885+Q9BVA1+Q9BUF5); experiment: Inhibition of [3H]Colchicine binding to tubulin (unknown origin) at 5 uM incubated for 10 mins by scintillation counter relative to control; type: protein-complex assay
MDA-MB-231 [4] = experiment: Induction of morphological changes in human MDA-MB-231 cells assessed as cell rounding at 100 nM measured after 20 hrs by scratch assay relative to control; type: functional
MDA-MB-231 [5] = experiment: Induction of G2/M phase cell cycle arrest in human MDA-MB-231 cells at 200 to 500 nM incubated for 48 hrs by PI staining based flow cytometric analysis; type: functional; settings: dose 200-500 nM
MDA-MB-231 [6] = experiment: Inhibition of cell proliferation in human MDA-MB-231 cells at 100 nM incubated for 20 hrs by scratch assay; type: functional, cell-based
MDA-MB-231 [7] = experiment: Inhibition of cell migration in human MDA-MB-231 cells at 200 nM by scratch assay; type: functional, cell-based
MDA-MB-231 [8] = experiment: Inhibition of cell proliferation in human MDA-MB-231 cells at 200 nM by scratch assay; type: functional, cell-based
MDA-MB-231 [9] = experiment: Inhibition of cell migration in human MDA-MB-231 cells at 50 nM incubated for 72 hrs by scratch assay; type: functional, cell-based
MDA-MB-231 [10] = experiment: Induction of morphological changes in human MDA-MB-231 cells assessed as cell rounding at 200 nM measured after 14 hrs by scratch assay; type: functional
Tubulin (Homo sapiens) [11] = biological target: T1, Tubulin (Homo sapiens); experiment: Induction of microtubule disruption in human MDA-MB-231 cells assessed as reduction in fluorescence at 100 nM measured at <1.5 mins by ViaFluor 488 live cell microtubule and Hoechst 33342 staining based fluorescence microscopic analysis
MDA-MB-231 [12] = experiment: Induction of morphological changes in human MDA-MB-231 cells at 100 nM measured within 2 hrs by scratch assay; type: functional, cell-based
MDA-MB-231 [13] = experiment: Inhibition of cell migration in human MDA-MB-231 cells at 50 nM incubated for 4 hrs by scratch assay; type: functional, cell-based
MDA-MB-231 [14] = experiment: Inhibition of cell proliferation in human MDA-MB-231 cells at 50 nM incubated for 6 hrs by scratch assay; type: functional, cell-based
MDA-MB-231 [15] = experiment: Induction of morphological changes in human MDA-MB-231 cells at 200 nM measured within 1 hrs by scratch assay; type: functional, cell-based
MDA-MB-231 [16] = experiment: Inhibition of cell migration in human MDA-MB-231 cells at 100 nM incubated for 20 hrs by scratch assay; type: functional, cell-based
MDA-MB-231 [17] = experiment: Inhibition of cell migration in human MDA-MB-231 cells at 100 nM incubated for 30 hrs by scratch assay; type: functional, cell-based
MDA-MB-231 [18] = experiment: Inhibition of cell migration in human MDA-MB-231 cells at 50 nM incubated for 6 hrs by scratch assay; type: functional, cell-based
Tubulin (Homo sapiens) [19] = biological target: T1, Tubulin (Homo sapiens); experiment: Induction of microtubule disruption in human MDA-MB-231 cells at 100 nM measured at 30 mins by ViaFluor 488 live cell microtubule and Hoechst 33342 staining based fluorescence microscopic analysis
Tubulin (Homo sapiens) [20] = biological target: T1, Tubulin (Homo sapiens); experiment: Inhibition of [3H]Colchicine binding to tubulin (unknown origin) at 0.5 uM incubated for 10 mins by scintillation counter relative to control; type: protein-complex assay
Mus musculus [21] = experiment: Vascular disrupting activity in BALB/c mouse implanted with mouse orthotopic RENCA-luc assessed as reduction in bioluminescence imaging signal at 150 mg/kg administered as single dose and measured at 2.5 hrs by imaging analysis relative to control; type: functional; design: scale not given: the % may be the effect or the level left
[22] = Aqueous solubility of compound; type: physicochemical; settings: water
Mus musculus [23] = experiment: Vascular disrupting activity in BALB/c mouse implanted with mouse orthotopic RENCA-luc assessed as reduction in bioluminescence imaging signal at 100 mg/kg administered as single dose and measured at 2.5 hrs by imaging analysis; type: functional, organism-based
Mus musculus [24] = experiment: Vascular disrupting activity in BALB/c mouse implanted with mouse orthotopic RENCA-luc assessed as necrosis at 150 mg/kg administered as single dose and measured after 2.5 hrs by H&E staining based analysis; type: functional, organism-based
Mus musculus [25] = experiment: Vascular disrupting activity in BALB/c mouse implanted with mouse orthotopic RENCA-luc assessed as hemorrhage at 150 mg/kg administered as single dose and measured after 2.5 hrs by H&E staining based analysis; type: functional, organism-based

SMILES	GI50 (MDA-MB-231 [1]) [nM]	IC50 [2] [nM]	GI50 (MCF7) [nM]	inhibition (Tubulin (Homo sapiens) [3]) [%]	also measured
COc1ccc(-c2ccc3c(C(=O)c4cc(OC)c(OC)c(OC)c4)c[nH]c3c2)cc1O	828	> 20000	1500	–	–
COc1ccc(/C=C\c2cc(OC)c(OC)c(OC)c2)cc1O [COMBRETASTATIN A4]	3.5	–	9	–	–
COc1cc(C(=O)c2c[nH]c3cc(-c4ccc(C)cc4)ccc23)cc(OC)c1OC	2010	1700	560	17	–
COc1cc(C(=O)c2c[nH]c3cc(-c4ccc(C(C)=O)s4)ccc23)cc(OC)c1OC	3230	> 20000	73	–	–
COc1cc(C(=O)c2c[nH]c3cc(-c4ccc(C(F)(F)F)cc4)ccc23)cc(OC)c1OC	4060	> 20000	1400	–	–
COc1cccc(-c2ccc3c(C(=O)c4cc(OC)c(OC)c(OC)c4)c[nH]c3c2)c1	36	370	23	87	–
COc1cc(C(=O)c2c[nH]c3cc(-c4cc5ccccc5o4)ccc23)cc(OC)c1OC	2070	> 20000	950	–	–
COc1cc(C(=O)c2c[nH]c3cc(-c4cccc(O)c4)ccc23)cc(OC)c1OC	102	570	320	87	Activity (MDA-MB-231 [4]): <90%; Activity (MDA-MB-231 [5]): Active; inhibition (MDA-MB-231 [6]): Active; inhibition (MDA-MB-231 [7]): Active; inhibition (MDA-MB-231 [8]): Active; inhibition (MDA-MB-231 [9]): inactive; Activity (MDA-MB-231 [10]): >90%; Activity (Tubulin (Homo sapiens) [11]): Active; Activity (MDA-MB-231 [12]): Active; inhibition (MDA-MB-231 [13]): Active; inhibition (MDA-MB-231 [14]): inactive; Activity (MDA-MB-231 [15]): Active; inhibition (MDA-MB-231 [16]): Active; inhibition (MDA-MB-231 [17]): Active; inhibition (MDA-MB-231 [18]): inactive; Activity (Tubulin (Homo sapiens) [19]): Active
COc1cc(C(=O)c2c[nH]c3cc(-c4cccc(N)c4)ccc23)cc(OC)c1OC	25	420	65	91	inhibition (Tubulin (Homo sapiens) [20]): 51%
CCc1ccc(-c2ccc3c(C(=O)c4cc(OC)c(OC)c(OC)c4)c[nH]c3c2)cc1	2220	> 20000	1800	–	–
COc1cc(C(=O)c2c[nH]c3cc(-c4cccc(OP(=O)([O-])[O-])c4)ccc23)cc(OC)c1OC.[Na+].[Na+]	694	9000	4200	–	Activity (Mus musculus [21]): >90%; solubility [22]: ≤ 2400 µg/mL; Activity (Mus musculus [23]): Active; Activity (Mus musculus [24]): Active; Activity (Mus musculus [25]): Active
COc1ccc(-c2ccc3c(C(=O)c4cc(OC)c(OC)c(OC)c4)c[nH]c3c2)cc1	1860	2500	98	9.1	–
COc1cc(C(=O)c2c[nH]c3cc(-c4ccccc4)ccc23)cc(OC)c1OC	156	280	73	86	–
CCc1ccc(-c2ccc3c(C(=O)c4cc(OC)c(O)c(OC)c4)c[nH]c3c2)cc1	> 5000	> 20000	> 5000	–	–
COc1cc(C(=O)c2c[nH]c3cc(-c4cccc([N+](=O)[O-])c4)ccc23)cc(OC)c1OC	110	650	28	41	–
